Source: patent publication US20070059272A1 (priority 2005, published 2007)
Entries after “also recorded” stand apart in the source; their conditions may differ.

How the values were obtained:
[1] = test system: PA-I promoter activity in reporter strain PA27853/PLL-EGFP
[2] = test system: membrane fractions of P. aeruginosa (PAO1); assay: ELISA binding to membrane fractions and solubilized membrane proteins of P. aeruginosa PAO1; design: species or system Pseudomonas aeruginosa; conditions: human cytokines, ELISA
[3] = test system: pyocyanin (PCN) production in P. aeruginosa PAO1; type: cell-based, Pseudomonas aeruginosa
[4] = target: membrane proteins of P. aeruginosa strain PAO1 (whole fixed cells, membrane fractions, solubilized membrane proteins)
PA-I mRNA in PA27853 = PA-I mRNA in PA27853 exposed to Caco-2 cells or cell fractions with and without GalNac; type: cell-based, Pseudomonas aeruginosa; conditions: in the presence of GalNac
Procedure: Using Caco-2 intestinal epithelial cells, the issue of whether components of intestinal epithelial cells themselves played a role in triggering the expression of PA-I was addressed. Strain PA27853 was exposed to media (apical and basolateral) and Caco-2 cell fractions (cytosolic, nuclear, membrane) at various time intervals. PA-I mRNA was measured in PA27853 in response to the various Caco-2 cell media fractions in the presence and absence of GalNac, a sugar that binds specifically to PA-I and prevents P. aeruginosa adherence to Caco-2 cells. Media alone from Caco-2 cells grown in transwells (apical or basolateral) had no effect on PA-I expression. However, Caco-2 cell membrane fractions triggered the accumulation of a very high abundance of PA-I mRNA (>10 fold increase)-an effect that was attenuated in the presence of GalNac (FIG. 7A). These in vitro findings are in agreement with the above mouse studies showing that PA-I can be activated in response to contact with the intestinal epithelium, yet in the unstressed Caco-2 cell system, luminal contents (apical media) had no effect, similar to the control mice. […]

[5] = test system: intestinal epithelial cells; conditions: cited from earlier work; for adhesion of P. aeruginosa to intestinal epithelial cells: 0.6% solution
PA-I = PA-I (Pseudomonas aeruginosa, UniProt Q05097); conditions: cited from earlier work
[6] = test system: PA-I expression in P. aeruginosa; type: cell-based, Pseudomonas aeruginosa
PA-IL in P. aeruginosa = conditions: cited from earlier work

Chain of PA-I (Q05097 whole entry): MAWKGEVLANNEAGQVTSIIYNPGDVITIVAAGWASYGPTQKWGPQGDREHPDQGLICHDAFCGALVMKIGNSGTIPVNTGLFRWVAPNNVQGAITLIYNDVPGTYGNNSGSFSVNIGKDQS

Nc1ncnc2c1ncn2[C@@H]1O[C@H](COP(=O)(O)O)[C@@H](O)[C@H]1O [AMP]
PA-I expression, nucleosides and nucleotides [1]: no evident inducing effects

IL-4: human cytokine
binding to P. aeruginosa cell membranes [2]: No binding

dynorphin
PCN production (OD520 nm) [3]: enhanced PCN production in a dose-dependent manner

Nc1ncnc2c1ncn2[C@@H]1O[C@H](CO)[C@@H](O)[C@H]1O [adenosine]
PA-I expression, nucleosides and nucleotides [1]: both dose- and time-dependent | PA-I promoter activity, candidate compounds in HDMEM [1]: enhanced fluorescence

recombinant human Interferon gamma (IFN-γ) (from UniProt P01579 24-166) (ligand)
percent of bacterial cells that bound IFN-γ [4]: 73%

TGF-β
binding to P. aeruginosa cell membranes [2]: No binding

CC(=O)N[C@H]1C(O)O[C@H](CO)[C@H](O)[C@@H]1O (stereo partly drawn) [GalNAc, N-acetyl-D-galactosamine]
PA-I mRNA increase in PA27853 densely adhered to Caco-2 cells (PA-I mRNA in PA27853): nearly completely abolished | PA-I mRNA increase triggered by Caco-2 cell membrane fractions (PA-I mRNA in PA27853): attenuated | adhesion of P. aeruginosa to intestinal epithelial cells [5]: markedly decreased adhesion | barrier function of intestinal epithelial cells [5]: do not alter their barrier function

C[C@@H](O)C(=O)O [D-lactate]
PA-I promoter activity, candidate compounds in HDMEM [1]: no effect

IL-10: human cytokine
binding to P. aeruginosa cell membranes [2]: No binding

Nc1ncnc2c1ncn2[C@@H]1O[C@H](COP(=O)(O)OP(=O)(O)OP(=O)(O)O)[C@@H](O)[C@H]1O [ATP]
PA-I expression, nucleosides and nucleotides [1]: no evident inducing effects

Oc1ccc2c3c1O[C@H]1c4[nH]c5c(c4C[C@@]4(O)[C@@H](C2)N(CC2CC2)CC[C@]314)C[C@@]1(O)[C@H]2Cc3ccc(O)c4c3[C@@]1(CCN2CC1CC1)[C@H]5O4 [norbinaltorphimine, nor-binaltorphimine]
dose that completely inhibits enhanced PCN production [3]: 200 µM | effect on U-50,488-enhanced PCN production [3]: attenuates enhanced PCN production

Nc1ncnc2c1ncn2[C@@H]1O[C@H](COP(=O)(O)OP(=O)(O)O)[C@@H](O)[C@H]1O [ADP]
PA-I expression, nucleosides and nucleotides [1]: no evident inducing effects

COC(=O)c1ccccc1N [MA, methyl anthranilate]
effect on ability of U-50,488 to enhance PCN production [3]: inhibited the ability of U-50,488 to enhance PCN production

OC[C@H]1O[C@H](OCC2O[C@@H](O)[C@H](O)[C@@H](O)[C@@H]2O)[C@H](O)[C@@H](O)[C@H]1O (some centres unmarked) [mellibiose]
adhesion of P. aeruginosa to intestinal epithelial cells [5]: markedly decreased adhesion | barrier function of intestinal epithelial cells [5]: do not alter their barrier function | binding affinity to PA-I (PA-I): highest binding affinity to date

C[C@H](O)C(=O)O [L-lactate]
PA-I promoter activity, candidate compounds in HDMEM [1]: no effect

EGF: human cytokine tested for membrane binding
binding to P. aeruginosa cell membranes [2]: No binding

NC[C@H](O)c1ccc(O)c(O)c1 [norepinephrine]
PA-I expression, in vitro studies [6]: did not change PA-I expression; also recorded: not affected | effect on QS-dependent virulence factor PA-IL (PA-IL in P. aeruginosa): can also affect

OC[C@H]1O[C@@H](n2cnc3c(O)ncnc32)[C@H](O)[C@@H]1O [inosine]
inosine concentration inducing PA-I expression, fold less than adenosine of equivalent effect [1]: 10 fold | onset of PA-I expression compared with adenosine [1]: earlier time point | size of effect on PA-I expression compared with adenosine [1]: greater

B1: adenosine deaminase: enzyme added to deplete the media of adenosine (protein, UniProt P00813 2-363, looked up)
Adenosine deaminase: AQTPAFDKPKVELHVHLDGSIKPETILYYGRRRGIALPANTAEGLLNVIGMDKPLTLPDFLAKFDYYMPAIAGCREAIKRIAYEFVEMKAKEGVVYVEVRYSPHLLANSKVEPIPWNQAEGDLTPDEVVALVGQGLQEGERDFGVKARSILCCMRHQPNWSPKVVELCKKYQQQTVVAIDLAGDETIPGSSLLPGHVQAYQEAVKSGIHRTVHAGEVGSAEVVKEAVDILKTERLGHGYHTLEDQALYNRLRQENMHFEICPWSSYLTGAWKPDTEHAVIRLKNDQANYSLNTDDPLIFKSTLDTDYQMTKRDMGFTEEEFKRLNINAAKSSFLPEDEKRELLDLLYKAYGMPPSASAGQNL
PA-I expression after depleting adenosine from media of HIF-1-a-activated Caco-2 cells ([1]; Caco-2): even greater increase in PA-I expression
